Experimental data from patent US9951021B2, “Compounds for inhibiting c-Myc/Max/DNA complex formation” (NATIONAL CANCER CENTER, priority 2016, dated 2018).

target: T1, recombinant c-Myc/Max (Homo sapiens, UniProt P01106+P61244); assay: Electrophoretic mobility shift assay (EMSA): inhibitory activity on DNA binding of recombinant c-Myc/Max; conditions: read-out: protein assay IC50
T1 construct: made in house
Protocol: 1) Preparation of Recombinant c-Myc and Max Proteins
Recombinant proteins were prepared as described in the following references: K. C. Jung et al., Fatty Acids, Inhibitors for the DNA Binding of c-Myc/Max Dimer, Suppress Proliferation and Induce Apoptosis of Differentiated HL-60 Human Leukemia Cell, Leukemia, 2006, 20(1), 122-7 or Kyung-Chae Jeong et al., Small-Molecule Inhibitors of c-Myc Transcriptional Factor Suppress Proliferation and Induce Apoptosis of Promyelocytic Leukemia Cell via Cell Cycle Arrest, Mol. BioSyst., 2010, 6, 1503-1509.
2) Electrophoretic Mobility Shift Assay (EMSA)
The inhibitory activity of each candidate compound on DNA binding of recombinant c-Myc/Max was measured using an electrophoretic mobility shift assay (EMSA). The ratio of protein-DNA complexes in each sample was evaluated by measuring band intensity. The oligonucleotides (E-box) corresponding to the consensus binding site of Myc/Max were dimerized through an annealing process. The protein mixture was incubated at room temperature for 5 minutes, and a DMSO solution containing each candidate compound was added thereto. The mixture was further incubated for 5 minutes, and the biotinylated DNA was added. To achieve a state of equilibrium, the final mixture was incubated at room temperature for 10 minutes. The protein-DNA complexes were separated from unbound free DNA by pre-electrophoresis using 8% polyacrylamide gel and 1×TBE buffer. After pre-electrophoresis, electrophoresis was performed at 120 V for 1 hour in 1×TBE buffer. Each band was visualized using HRP-conjugated streptavidin and an ECL solution, and band intensity was measured using image analysis software.

T1 sequence (P01106 whole entry): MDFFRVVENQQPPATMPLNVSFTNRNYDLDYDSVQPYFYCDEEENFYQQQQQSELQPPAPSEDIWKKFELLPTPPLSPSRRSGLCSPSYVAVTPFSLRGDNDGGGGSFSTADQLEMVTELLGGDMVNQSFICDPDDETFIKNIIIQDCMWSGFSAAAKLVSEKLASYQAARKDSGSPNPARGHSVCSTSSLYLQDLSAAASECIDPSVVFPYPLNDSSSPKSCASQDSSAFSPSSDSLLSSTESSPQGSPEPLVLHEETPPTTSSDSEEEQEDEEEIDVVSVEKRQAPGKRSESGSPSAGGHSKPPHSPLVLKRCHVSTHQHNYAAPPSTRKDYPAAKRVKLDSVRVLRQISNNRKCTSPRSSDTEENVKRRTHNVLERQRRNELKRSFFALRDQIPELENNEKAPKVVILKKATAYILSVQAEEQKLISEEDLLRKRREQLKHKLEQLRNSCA
T1 sequence (P61244 whole entry): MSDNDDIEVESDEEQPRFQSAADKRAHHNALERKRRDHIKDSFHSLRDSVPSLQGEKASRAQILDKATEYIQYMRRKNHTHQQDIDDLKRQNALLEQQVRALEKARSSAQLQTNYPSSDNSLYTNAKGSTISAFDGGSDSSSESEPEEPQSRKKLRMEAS

Structure (SMILES) | IC50 [nM]
CC(=O)c1c([S+](C)[O-])[nH]c2c(Br)ccc(Cl)c2c1=O (centres unmarked) [Compound 1, 3-acetyl-8-bromo-5-chloro-2-(methylsulfinyl)quinolin-4(1H)-one] | < 1000
CSc1[nH]c2c(Br)ccc(Cl)c2c(=O)c1C(C)=O [Compound 2, 3-acetyl-8-bromo-5-chloro-2-(methylthio)quinolin-4(1H)-one] | < 1000
CSc1c(C(C)=O)c(=O)c2c(Cl)ccc(Br)c2n1C [Compound 5, 3-acetyl-8-bromo-5-chloro-1-methyl-2-(methylthio)quinolin-4(1H)-one] | < 1000
CC(=O)c1c([S+](C)[O-])[nH]c2c(Cl)ccc(Cl)c2c1=O (centres unmarked) [Compound 6, 3-acetyl-5,8-dichloro-2-(methylsulfinyl)quinolin-4(1H)-one] | < 1000
CSc1c(C(C)=O)c(=O)c2cc(F)ccc2n1C [Compound 7, 3-acetyl-6-fluoro-1-methyl-2-(methylthio)quinolin-4(1H)-one] | < 1000
CSc1[nH]c2ccc(F)cc2c(=O)c1C(C)=O [Compound 8, 1-(6-fluoro-4-hydroxy-2-(methylthio)quinolin-3-yl)ethan-1-one] | < 1000
CC(=O)c1c([S+](C)[O-])n(C(=O)c2ccc(Br)cc2)c2c(Br)ccc(Cl)c2c1=O (centres unmarked) [Compound 9, 3-acetyl-8-bromo-1-(4-bromobenzoyl)-5-chloro-2-(methylsulfinyl)quinolin-4(1H)-one] | < 1000
CC(=O)c1c(SCc2ccc(Cl)cc2)[nH]c2c(Br)ccc(Cl)c2c1=O [Compound 10, 3-acetyl-8-bromo-5-chloro-2-((4-chlorobenzyl)thio)quinolin-4(1H)-one] | < 1000
CC(=O)c1c([S+]([O-])Cc2ccc(Cl)cc2)[nH]c2c(Br)ccc(Cl)c2c1=O (centres unmarked) [Compound 11, 3-acetyl-8-bromo-5-chloro-2-((4-chlorobenzyl)sulfinyl)quinolin-4(1H)-one] | < 1000
CC(=O)c1c(Sc2ccccc2)[nH]c2c(Br)ccc(Cl)c2c1=O [Compound 12, 3-acetyl-8-bromo-5-chloro-2-(phenylthio)quinolin-4(1H)-one] | < 1000
CC(=O)c1c([S+]([O-])c2ccccc2)[nH]c2c(Br)ccc(Cl)c2c1=O (centres unmarked) [Compound 13, 3-acetyl-8-bromo-5-chloro-2-(phenylsulfinyl)quinolin-4(1H)-one] | < 1000
COc1ccccc1Sc1[nH]c2c(Br)ccc(Cl)c2c(=O)c1C(C)=O [Compound 14, 3-acetyl-8-bromo-5-chloro-2-((2-methoxyphenyl)thio)quinolin-4(1H)-one] | < 1000
COc1ccccc1[S+]([O-])c1[nH]c2c(Br)ccc(Cl)c2c(=O)c1C(C)=O (centres unmarked) [Compound 15, 3-acetyl-8-bromo-5-chloro-2-((2-methoxyphenyl)sulfinyl)quinolin-4(1H)-one] | < 1000
CC(=O)c1c(Sc2ccc(Br)cc2)[nH]c2c(Br)ccc(Cl)c2c1=O [Compound 16, 3-acetyl-8-bromo-2-((4-bromophenyl)thio)-5-chloroquinolin-4(1H)-one] | < 1000
CC(=O)c1c([S+]([O-])c2ccc(Br)cc2)[nH]c2c(Br)ccc(Cl)c2c1=O (centres unmarked) [Compound 17, 3-acetyl-8-bromo-2-((4-bromophenyl)sulfinyl)-5-chloroquinolin-4(1H)-one] | < 1000
CSc1c(C(C)=O)c(=O)c2c(Cl)ccc(Br)c2n1C(C)=O [Compound 18, 1,1′-(8-bromo-5-chloro-2-(methylthio)-4-oxoquinoline-1,3(4H)-diyl)bis(ethan-1-one)] | < 1000
CC(=O)c1c([S+](C)[O-])n(C(C)=O)c2c(Br)ccc(Cl)c2c1=O (centres unmarked) [Compound 19, 1,1′-(8-bromo-5-chloro-2-(methylsulfinyl)-4-oxoquinoline-1,3-(4H)-diyl)bis(ethan-1-one)] | < 1000
CC(=O)c1c([S+]([O-])Cc2ccccc2)n(C(=O)c2ccc(Br)cc2)c2c(Br)ccc(Cl)c2c1=O (centres unmarked) [Compound 20, 3-acetyl-2-(benzylsulfinyl)-8-bromo-1-(4-bromobenzoyl)-5-chloroquinolin-4(1H)-one] | < 1000
CC(=O)c1c(S(C)(=O)=O)n(C(=O)c2ccc(Br)cc2)c2c(Br)ccc(Cl)c2c1=O [Compound 21, 3-acetyl-8-bromo-1-(4-bromobenzoyl)-5-chloro-2-(methylsulfonyl)quinolin-4(1H)-one] | < 1000

Structure (SMILES) | IC50 [nM]
CC(=O)c1c([S+](C)[O-])n(Cc2ccc(F)c(Cl)c2)c2c(Br)ccc(Cl)c2c1=O (centres unmarked) [Compound 22, 3-acetyl-8-bromo-5-chloro-1-(3-chloro-4-fluorobenzyl)-2-(methylsulfinyl)quinolin-4(1H)-one] | < 1000
CC(=O)c1c(SCc2ccccc2)n(C(=O)c2ccc(Br)cc2)c2c(Br)ccc(Cl)c2c1=O [Compound 23, 3-acetyl-2-(benzylthio)-8-bromo-1-(4-bromobenzoyl)-5-chloroquinolin-4(1H)-one] | < 1000
CC(=O)c1c(SC(C)C)[nH]c2c(Br)ccc(Cl)c2c1=O [Compound 24, 3-acetyl-8-bromo-5-chloro-2-(isopropylthio)quinolin-4(1H)-one] | < 1000
CC(=O)c1c([S+]([O-])C(C)C)[nH]c2c(Br)ccc(Cl)c2c1=O (centres unmarked) [Compound 25, 3-acetyl-8-bromo-5-chloro-2-(isopropylsulfinyl)quinolin-4(1H)-one] | < 1000
CC(=O)c1c([S+]([O-])C(C)c2ccccc2)[nH]c2c(Br)ccc(Cl)c2c1=O (centres unmarked) [Compound 26, 3-acetyl-8-bromo-5-chloro-2-((1-phenylethyl)sulfinyl)quinolin-4(1H)-one] | < 1000
CC(=O)c1c(SCc2cccc(C#N)c2)[nH]c2c(Br)ccc(Cl)c2c1=O [Compound 27, 3-(((3-acetyl-8-bromo-5-chloro-4-oxo-1,4-dihydroquinolin-2-yl)thio)methyl)benzonitrile] | < 1000
CC(=O)c1c([S+]([O-])Cc2cccc(C#N)c2)[nH]c2c(Br)ccc(Cl)c2c1=O (centres unmarked) [Compound 28, 3-(((3-acetyl-8-bromo-5-chloro-4-oxo-1,4-dihydroquinolin-2-yl)sulfinyl)methyl)benzonitrile] | < 1000
CC(=O)c1c([S+]([O-])Cc2ccc(F)cc2F)[nH]c2c(Br)ccc(Cl)c2c1=O (centres unmarked) [Compound 29, 3-acetyl-8-bromo-5-chloro-2-((2,4-difluorobenzyl)sulfinyl)quinolin-4(1H)-one] | < 1000
CC(=O)c1c(SCc2ccc(F)c(Cl)c2)[nH]c2c(Br)ccc(Cl)c2c1=O [Compound 30, 3-acetyl-8-bromo-5-chloro-2-((3-chloro-4-fluorobenzyl)thio)quinolin-4(1H)-one] | < 1000
CC(=O)c1c([S+]([O-])Cc2ccc(F)c(Cl)c2)[nH]c2c(Br)ccc(Cl)c2c1=O (centres unmarked) [Compound 31, 3-acetyl-8-bromo-5-chloro-2-((3-chloro-4-fluorobenzyl)sulfinyl)quinolin-4(1H)-one] | < 1000
CC(=O)c1c(SCc2ccc([N+](=O)[O-])cc2)[nH]c2c(Br)ccc(Cl)c2c1=O [Compound 32, 3-acetyl-8-bromo-5-chloro-2-((4-nitrobenzyl)thio)quinolin-4(1H)-one] | < 1000
CC(=O)c1c(S(=O)(=O)Cc2ccccc2)[nH]c2c(Br)ccc(Cl)c2c1=O [Compound 34, 3-acetyl-2-(benzylsulfonyl)-8-bromo-5-chloroquinolin-4(1H)-one] | < 1000
CSc1c(C(C)=O)c(=O)c2c(Cl)ccc(Br)c2n1S(C)(=O)=O [Compound 35, 3-acetyl-8-bromo-5-chloro-1-(methylsulfonyl)-2-(methylthio)quinolin-4(1H)-one] | < 1000
CC(=O)c1c([S+](C)[O-])n(S(=O)(=O)C(F)(F)F)c2c(Br)ccc(Cl)c2c1=O (centres unmarked) [Compound 36, 3-acetyl-8-bromo-5-chloro-2-(methylsulfinyl)-1-((trifluoromethyl)sulfonyl)quinolin-4(1H)-one] | < 1000
CSc1c(C(C)=O)c(=O)c2c(Cl)ccc(Br)c2n1S(=O)(=O)c1ccc(Cl)cc1 [Compound 37, 3-acetyl-8-bromo-5-chloro-1-((4-chlorophenyl)sulfonyl)-2-(methylthio)quinolin-4(1H)-one] | < 1000
CSc1c(C(C)=O)c(=O)c2c(Cl)ccc(Br)c2n1S(=O)(=O)c1ccc([N+](=O)[O-])cc1 [Compound 38, 3-acetyl-8-bromo-5-chloro-2-(methylthio)-1-((4-nitrophenyl)sulfonyl)quinolin-4(1H)-one] | < 1000
CCS(=O)(=O)n1c([S+](C)[O-])c(C(C)=O)c(=O)c2c(Cl)ccc(Br)c21 (centres unmarked) [Compound 39, 3-acetyl-8-bromo-5-chloro-1-(ethylsulfonyl)-2-(methylsulfinyl)quinolin-4(1H)-one] | < 1000
CSc1c(C(C)=O)c(=O)c2c(Cl)ccc(Br)c2n1S(=O)(=O)c1ccc(C(C)(C)C)cc1 [Compound 40, 3-acetyl-8-bromo-1-((4-(tert-butyl)phenyl)sulfonyl)-5-chloro-2-(methylthio)quinolin-4(1H)-one] | < 1000
CC(=O)c1c(S(C)(=O)=O)n(S(=O)(=O)c2ccc(C(C)(C)C)cc2)c2c(Br)ccc(Cl)c2c1=O [Compound 41, 3-acetyl-8-bromo-1-((4-(tert-butyl)phenyl)sulfonyl)-5-chloro-2-(methylsulfonyl)quinolin-4(1H)-one] | < 1000
